In US10010535B2, “Desferrithiocin analogs and uses thereof” (University of Florida Research Foundation, Incorporated, priority 2013, dated 2018):
Counter-ions that a name gives are not always drawn. Like-named read-outs stand apart in the source and are kept apart here.

Experiments:
urinary Kim-1 excretion [1] = conditions: for renal toxicity (Kim-1, BUN, SCr), summary: rat, in vivo; for survival of dosing period: po twice daily 237 μmol/kg/dose (474 μmol/kg/d), up to 7 d, rats with normal iron stores; for BUN and SCr / urinary Kim-1 excretion versus baseline (day 0): po twice daily 237 μmol/kg/dose × 7 d
Protocol: The compounds were administered to the rats po as their monosodium salts, prepared as described above, twice daily at a dose of 237 μmol/kg/dose (474 μmol/kg/d) for up to 7 d. The studies were performed on rats with normal iron stores. The rats were fasted overnight and were given the first dose of the compound first thing in the morning. The rats were fed ˜3 h post-dose and had access to food for ˜5 h before being fasted overnight.
The rats were housed in individual metabolic cages. […] A baseline (day 0) urine sample was collected and assessed for its Kim-1 content; each animal served as its own control. The urine was collected chilled as previously described (Bergeron et al., “Desferrithiocin Analog Iron Chelators: Iron Clearing Efficiency, Tissue Distribution, and Renal Toxicity.” Biometals, 2011, 24, 239-258).
The chilled urine was collected, vortexed, and warmed to room temperature; any sediment in the samples was allowed to settle. Kim-1 content was assessed using a Rat Kim-1 Rapid Test Kit according to the manufacturer's instructions. The result was read using a ReaScan Test Reader. […] Data are presented as the mean±the standard error of the mean; p-values were generated via a one-tailed Student's t-test in which the inequality of variances was assumed; and a p-value of <0.05 was considered significant.
Assessment of chelator-induced impaired renal function has traditionally relied on the detection of a rise in blood urea nitrogen (BUN) and/or serum creatinine (SCr). However, because of the functional reserve of the kidney, these parameters are often unreliable indicators of acute kidney injury; the ultimate answer requires histopathology. […] BioAssay Works has recently developed RenaStick, a direct lateral flow immunochromato-graphic assay, which allows for the rapid detection (less than 30 minutes) and quantitation of urinary Kim-1 (rat) or KIM-1 (human) excretion (Vaidya et al., “A Rapid Urine Test for Early Detection of Kidney Injury.” Kidney. Int. 2009, 76, 108-114). […] The studies were performed on rats with normal iron stores; each animal served as their own control.

[2] = Job's plot stoichiometry of Fe(III) complexes; format: binding; conditions: [DFT analog]+[Fe(III)]=1.0 mM, Tris-HCl pH 7.4; theoretical 0.667 for 2:1
Protocol: Solutions containing DFT analog/Fe(III) at different ratios were prepared such that [DFT analog]+[Fe(III)]=1.0 mM in Tris-HCl buffer at pH 7.4. The theoretical mole fraction maximum for a 2:1 DFT analog:Fe complex is 0.667 (indicated by an arrow).
In each instance, the DFT analogs formed 2:1 complexes with Fe(III). […] A 100 mM Tris HCl buffer was used to maintain the pH at 7.4. Solutions containing different DFT analog/Fe(III) ratios were prepared by mixing appropriate volumes of 1.0 mM DFT analog solution and 1.0 mM Fe(III)-nitriloacetate (NTA) in Tris-HCl buffer. The 1.0 mM Fe(III)-NTA solution was prepared immediately prior to use by dilution of a 41.6 mM Fe(III)-NTA stock solution with the Tris HCl buffer, whereas the DFT analog stock solution was prepared by dissolving the DFT analog as its monosodium salt in Tris HCl buffer at pH 7.4. The Fe(III)-NTA stock solution was prepared by mixing equal volumes of […] of FeCl3 and 180 mM trisodium NTA. The iron content of the Fe(III)-NTA solution was verified by atomic absorption spectrophotometry (AAS).

[3] = 1H NMR hydrogen-deuterium exchange study; format: physicochemical; conditions: 25° C., pH 7.0, phosphate buffer (0.1 M)
Protocol: The ratio of the (unexchanged) to the (original) was measured by the diminution of δ 6.33 (d, H-3′, J=2.3) relative to the integration of δ 6.39 (d, H-5′, J=9.0) at time points to 104 min. […] (unexchanged) to the [I-1] (original) was measured by the diminution of δ 6.41 (d, H-4′, J=2.3) relative to the integration of δ 7.54 (d, H-6′, J=2.3) at time points to 16 h. Plots of the natural log of [compound]
Quinone formation could result in redox cycling and, at a cellular level, untoward side effects. […] The exchange rate order is understandable.

[4] = Octanol-water partition, shake flask (log Papp); format: physicochemical; conditions: pH 7.4, Tris buffer
Protocol: The partition values between octanol and water (at pH 7.4, Tris buffer) were determined using a “shake flask” direct method of measuring log Papp values (Sangster et al., Octanol-Water Partition Coefficients: Fundamentals and Physical Chemistry; John Wiley and Sons: West Sussex, England, 1997; Vol. 2). The fraction of compound in the octanol is then expressed as log Papp. […] This is likely due to the presence of the aromatic nitrogen, a moderately good hydrogen bond accepter, on the DFT analogs.

iron excretion [5] = conditions: po 150 μmol/kg, cited from earlier work
[6] = oral; cited from earlier work
[7] = po once daily 384 μmol/kg/d (100 mg/kg/d), cited from earlier work
iron excretion [8] = conditions: po 150 μmol/kg, cited from earlier work; remark: listed apart in the source
iron excretion [9] = assay: Iron-clearing efficiency in iron-overloaded primates (fecal and urine samples); format: in vivo, Cebus apella monkeys; conditions: primates po / rodents po
Protocol: At least 20 half-lives, 60 days (Wood et al., “The Metabolism of Iron-Dextran Given As a Total-Dose Infusion to Iron Deficient Jamaican Subjects.” Br. J. Hamaetol. 1968, 14, 119-129), elapsed before any of the animals were used in experiments evaluating iron-chelating agents.
Briefly, the collections began 4 days prior to the administration of the test compound and continued for an additional 5 days after the compound was given. Iron concentrations were determined by flame absorption spectroscopy as presented in other publications (Bergeron et al., “A Comparative Evaluation of Iron Clearance Models.” Ann. N.Y. Acad. Sci. 1990, 612, 378-393; Bergeron et al., “Synthesis and Biological Evaluation of Naphthyldesferrithiocin Iron Chelators.” J. Med. Chem. 1996, 39, 1575-1581).
In the text below, the term “iron-clearing efficiency” (ICE) is used as a measure of the amount of iron excretion induced by a chelator. The ICE, expressed as a percent, is calculated as (compound-induced iron excretion/theoretical iron excretion)×100. To illustrate, the theoretical iron excretion after administration of one millimole of desferrioxamine B mesylate (DFO) (FIG. 3), a hexadentate chelator that forms a 1:1 complex with Fe(III), is one milli-g-atom of iron. Two millimoles of desferrithiocin (DFT) (Table 1), a tridentate iron chelator that forms a 2:1 complex with Fe(III), are required for the theoretical excretion of one milli-g-atom of iron. The theoretical iron outputs of the chelators were generated on the basis of a 2:1 compound:iron complex. The efficiencies in the rats and monkeys were calculated as set forth elsewhere (Bergeron et al., “Effects of C-4 Stereochemistry and C-4′ Hydroxylation on the Iron Clearing Efficiency and Toxicity of Desferrithiocin Analogs.” J. Med. Chem. 1999, 42, 2432-2440; Bergeron et al., “HBED: A Potential Alternative to Deferoxamine for Iron-Chelating Therapy.” Blood 1998, 91, 1446-1452).

[10] = administered twice daily; cited from earlier work
urinary Kim-1 excretion [11] = conditions: cited from earlier work; for urinary Kim-1: 237 μmol/kg twice daily
[12] = Compound-plasma binding, rodent plasma; format: in vitro ADME; conditions: 37° C., 4 h, 3,000 MWCO filter
Description: (§1) Each sample was then passed through a Millipore Amicon Ultra regenerated cellulose filter (3,000 MWCO).

[13] = Compound-plasma binding, primate plasma; format: in vitro ADME; conditions: 37° C., 4 h, 3,000 MWCO filter
Description: as §1

[14] = tested on: acetic acid-induced colitis; conditions: rat, in vivo; cited from earlier work
[15] = day 8, after 237 μmol/kg twice daily × 7 d

SMILES: C[C@]1(C(=O)O)CSC(c2ncc(O)cc2O)=N1 [I-1, (S)-4,5-Dihydro-2-(3,5-dihydroxy-2-pyridinyl)-4-methyl-4-thiazolecarboxylic Acid]
- BUN (urinary Kim-1 excretion [1]; [15]): 13 ± 2 mg/dL
- SCr (urinary Kim-1 excretion [1]; [15]): 0.5 ± 0.1 mg/dL
- renal toxicity (Kim-1, BUN, SCr), summary (urinary Kim-1 excretion [1]): some nephrotoxicity
- observed mole fraction maximum in Job's plot [2]: 0.669
- Exchange Rate (s^−1), hydrogen-deuterium exchange [3]: 3.3e-06 s⁻¹
- LogPapp [4]: −1.68

SMILES: C[C@]1(C(=O)O)CSC(c2ncccc2O)=N1 [compound 1, desferrithiocin]
- Rodent Iron-Clearing Efficiency (%) (iron excretion [5]; solubilized in 40% Cremophor RH-40/water): 5.5±3.2%
- relative percentages of the iron excreted in the bile and urine (iron excretion [5]; rodents, 40% Cremophor RH-40/water, bile/urine): 93/7
- fold increase of urinary Kim-1 over baseline (urinary Kim-1 excretion [1]; after one day, 237 μmol/kg/dose twice daily po): ~10 fold
- survival of dosing period (urinary Kim-1 excretion [1]): None of the rats survived
- SCr (urinary Kim-1 excretion [1]; two moribund rats sacrificed after four days of 237 μmol/kg/dose twice daily, normal 0.4-1): 5.1 ± 0.3 mg/dL
- BUN (urinary Kim-1 excretion [1]; two moribund rats sacrificed after four days of 237 μmol/kg/dose twice daily, normal 9-30): 139 ± 8 mg/dL
- nephrotoxicity [6]: severe nephrotoxicity
- LogPapp [4]: −1.77
- mortality ([7]; planned 10-d, rats with normal iron stores): All of the rats were dead by day 5
- nephrotoxicity [7]: severely nephrotoxic
- Primate Iron-Clearing Efficiency (%) (iron excretion [8]): 16.1±8.5%
- relative percentages of the iron excreted in the feces and urine (iron excretion [8]; primates, feces/urine): 78/22
- Performance ratio (PR), mean ICEprimates/ICErodents (iron excretion [9]): 2.9

SMILES: COCCOCCOc1cnc(C2=N[C@@](C)(C(=O)O)CS2)c(O)c1 [I-2, (S)-4,5-Dihydro-2-[3-hydroxy-5-(3,6-dioxaheptyloxy)-2-pyridinyl]-4-methyl-4-thiazolecarboxylic Acid]
- survival of dosing period (urinary Kim-1 excretion [1]): All of the animals survived the compound dosing regimen
- BUN and SCr (urinary Kim-1 excretion [1]): well within the normal range
- urinary Kim-1 excretion versus baseline (day 0) (urinary Kim-1 excretion [1]): remained within error of that of the baseline (day 0) levels
- renal toxicity (Kim-1, BUN, SCr), summary (urinary Kim-1 excretion [1]): little to no impact on renal function
- observed mole fraction maximum in Job's plot [2]: 0.676
- Exchange Rate (s^−1), hydrogen-deuterium exchange [3]: No change and none and No exchange
- LogPapp [4]: −1.59

SMILES: C[C@]1(C(=O)O)CSC(c2ccc(O)cc2O)=N1 [compound 3]
- nephrotoxicity in patients [10]: induced proximal tubule nephrotoxicity
- LogPapp [4]: −1.05
- urinary Kim-1 (urinary Kim-1 excretion [11]; after three days): 69±47 ng/kg/24 h
- BUN (urinary Kim-1 excretion [11]; [15]): 32 ± 13 mg/dL
- SCr (urinary Kim-1 excretion [11]; [15]): 1.3 ± 1.0 mg/dL
- urinary Kim-1 (urinary Kim-1 excretion [11]; end of the 7 d dosing period): 189±187 ng/kg/24 h
- renal toxicity (Kim-1, BUN, SCr), summary (urinary Kim-1 excretion [11]; rats): some nephrotoxicity

SMILES: COCCOCCOc1ccnc(C2=N[C@@](C)(C(=O)O)CS2)c1O [I-3, (S)-4,5-Dihydro-2-[3-hydroxy-4-(3,6-dioxaheptyloxy)-2-pyridinyl]-4-methyl-4-thiazolecarboxylic Acid]
- survival of dosing period (urinary Kim-1 excretion [1]): All of the animals survived the compound dosing regimen
- BUN and SCr (urinary Kim-1 excretion [1]): well within the normal range
- urinary Kim-1 excretion versus baseline (day 0) (urinary Kim-1 excretion [1]): remained within error of that of the baseline (day 0) levels
- renal toxicity (Kim-1, BUN, SCr), summary (urinary Kim-1 excretion [1]): little to no impact on renal function
- observed mole fraction maximum in Job's plot [2]: 0.677
- binding of the compound to plasma [12]: little, if any, binding
- LogPapp [4]: −1.38
- binding of the compound to plasma [13]: little, if any, binding

SMILES: CC(=O)N(O)CCCCCNC(=O)CCC(=O)N(O)CCCCCNC(=O)CCC(=O)N(O)CCCCCN [DFO, desferrioxamine B mesylate]
- effect on acetic acid-induced colitis [14]: prevent acetic acid-induced colitis
